Measured values as given in patent US8119640B2, “Hedgehog pathway antagonists methods of use” (The Board of Trustees of the Leland Stanford Junior …, priority 2008, dated 2012).
pIC50: −log10 of the molar value. “Also recorded” adds a separate entry of the source. Where two headings read alike, the source gives them in different places.

What was measured:
[1] = biological target: T1, Gli2 (Mus musculus, UniProt Q0VGT2); assay: Hh pathway activation mediated by overexpression of Gli2; type: cell-based; details: for Inhibition of Hh pathway activity induced by Gli2 overexpression: NIH-3T3 cells, Gli-dependent firefly luciferase; for IC50: NIH-3T3 cells overexpressing Gli2, read-out: IC50 (uM) Gli2 Transfected
T1 construct: expressed in transfected cells; host or cells: NIH-3T3
Description: Hh pathway activation mediated by the overexpression of Gli, Gli2, Gli2αPKA, or Gli2αGSK. […] The cells were co-transfected the following day with 220 ng/well pcDNA-derived Gli1, Gli2, or Gli2 phosphosite mutant expression vectors and 80 ng/well of a 1:15 mixture of phRLTK (Promega) and 8XGIiBS-FL. After transfection, cells were grown to confluence (approximately 48 h). The cell were then incubated for an additional 28-32 h in DMEM containing 0.5% CS, 100 U/mL penicillin, 0.1 mg/mL streptomycin, and either DMSO, 50 μM forskolin, 50 μM LY294002, or various concentrations of the HPIs. Firefly and Renilla luciferase activities were measured using a dual luciferase kit and a Veritas microplate luminometer.

[2] = test system: Hh pathway; assay: Shh-LIGHT2 assay for Hh pathway activation (Gli-dependent firefly luciferase); type: cell-based; details: for pIC50: SAG-stimulated Shh-LIGHT2 cells, firefly luciferase, read-out: median inhibitory concentrations (IC50s) in the screen
Description: Shh-LIGHT2 assay for Hh pathway activation and library screening conditions. h-N-conditioned medium was prepared as previously described. […] For 96-well plate assays, Shh-LIGHT2 cells were seeded into each plate (10,000 cells/well) and cultured to confluency. The Shh-LIGHT2 cells were then grown in DMEM containing 0.5% CS, 100 U/mL penicillin, 0.1 mg/mL streptomycin, either 5% Shh-N-conditioned medium or 500 nM SAG, and various concentrations of the HPIs. After the cells were cultured for another 30 h, the resulting firefly and Renilla luciferase activities were measured using a Dual Luciferase Reporter kit (Promega) and a Veritas microplate luminometer (Turner Biosystems).
When the cells reached >90% confluency, they were removed by trypsinization and diluted to a final volume of 50 mL medium. This cell suspension was then plated into clear-bottom, white-walled 384-well plates using a Titertek Multidrop dispenser (50 μL/well) and the cells were cultured until they reached confluency (3-4 days). […] The plates were then placed into an automated Staccato system (Caliper Life Sciences), which includes an automated CO2 incubator. An automated protocol was then run, in 3 which a Multidrop dispenser added 10 μL of a SAG solution in 0.5% CS medium (final SAG concentration of 500 nM) to columns 1-22 and 100 nL of each compound solution was added to the plates using a V&P Scientific pin tool, resulting in a final compound screening concentration of 10 μM. The SAG-free wells were used as negative controls. After 28-32 h, the assay medium was manually removed and the plates were frozen. To assay the firefly luciferase activities, the plates were thawed and placed into a Twister II stacker in the Staccato system. Bright-Glo luciferase substrate (Promega) was added by the Multidrop dispenser and the plates were analyzed on an Analyst GT microplate reader (2 min in the dark, 0.2 sec integration/well; Molecular Devices). Hits were defined as compounds that reduce the firefly luciferase signal by at least 50% compared to inhibitor-free controls. Primary hits were then re-tested in duplicate in an eight-point, 1:1 serially diluted doseresponse curve with a starting concentration of 20 μM. In these experiments, the median inhibitory concentration (IC50) for both firefly and Renilla luciferase were determined using a Dual-Glo kit (Promega).

[3] = biological target: Smo (Mus musculus, UniProt P56726); assay: BODIPY-cyclopamine/Smo binding assay; parameters: expressed in transfected cells; host or cells: HEK-293T; species or system murine; details: 5 nM BODIPY-cyclopamine, Smo-overexpressing HEK-293T cells, HPIs 20 μM
Description: BODIPY-cyclopamine/Smo binding assay. Smo-binding assays were conducted with BODIPY-cyclopamine and Smooverexpressing and HEK-293T cells as previously described, using a CMV-promoter based SV40 origin-containing expression construct for Smo-Myc3 (murine Smo containing three consecutive Myc epitopes at the C-terminus). […] The cells were cultured until they reached 55 to 65% confluency (14-18 h), after which they were transfected with the Smo-Myc3 expression construct and FuGENE (Roche) according to the manufacturer's protocols. 24 h after transfection, the cells were washed with phosphate-buffered saline (PBS) and cultured in DMEM containing 0.5% FBS, 5 nM BODIPY-cyclopamine, and individual HPIs (20 μM). After 30 min, 10 μM Hoescht 33342 was added to each well, and the HPIs were incubated with the cells for an additional 60 min. The cells were then washed two times with PBS buffer, mounted in Prolong Gold (Invitrogen) and immediately imaged using a DM4500B compound microscope (Leica).

[4] = Shh Light2, stimulated with 500 nM SAG, read-out: IC50 (uM) SAG/Shh-LIGHT2 cells
[5] = Shh Light2, stimulated with Shh-N-conditioned medium, read-out: IC50 (uM) Shh/Shh-LIGHT2 cells

Chain of Smo (P56726 33-793): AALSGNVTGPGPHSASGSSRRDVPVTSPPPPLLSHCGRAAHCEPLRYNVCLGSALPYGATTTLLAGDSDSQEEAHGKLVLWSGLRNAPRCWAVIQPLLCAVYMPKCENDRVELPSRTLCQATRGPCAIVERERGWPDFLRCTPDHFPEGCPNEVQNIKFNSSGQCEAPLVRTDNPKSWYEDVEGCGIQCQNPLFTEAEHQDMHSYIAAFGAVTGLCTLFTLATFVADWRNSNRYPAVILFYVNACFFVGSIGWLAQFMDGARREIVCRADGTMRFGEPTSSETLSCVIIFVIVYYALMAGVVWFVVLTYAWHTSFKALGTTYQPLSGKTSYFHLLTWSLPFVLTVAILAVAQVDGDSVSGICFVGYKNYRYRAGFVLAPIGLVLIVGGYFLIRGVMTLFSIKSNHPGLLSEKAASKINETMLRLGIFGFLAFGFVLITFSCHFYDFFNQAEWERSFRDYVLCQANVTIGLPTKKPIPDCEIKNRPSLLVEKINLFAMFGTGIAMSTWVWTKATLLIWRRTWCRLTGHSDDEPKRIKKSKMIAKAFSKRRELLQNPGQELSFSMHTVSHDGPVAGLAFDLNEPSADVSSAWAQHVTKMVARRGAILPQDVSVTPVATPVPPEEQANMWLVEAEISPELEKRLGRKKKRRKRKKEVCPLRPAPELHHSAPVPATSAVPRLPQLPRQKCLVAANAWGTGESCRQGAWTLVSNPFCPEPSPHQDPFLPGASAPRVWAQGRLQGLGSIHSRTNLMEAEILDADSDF
T1 sequence (Q0VGT2 whole entry): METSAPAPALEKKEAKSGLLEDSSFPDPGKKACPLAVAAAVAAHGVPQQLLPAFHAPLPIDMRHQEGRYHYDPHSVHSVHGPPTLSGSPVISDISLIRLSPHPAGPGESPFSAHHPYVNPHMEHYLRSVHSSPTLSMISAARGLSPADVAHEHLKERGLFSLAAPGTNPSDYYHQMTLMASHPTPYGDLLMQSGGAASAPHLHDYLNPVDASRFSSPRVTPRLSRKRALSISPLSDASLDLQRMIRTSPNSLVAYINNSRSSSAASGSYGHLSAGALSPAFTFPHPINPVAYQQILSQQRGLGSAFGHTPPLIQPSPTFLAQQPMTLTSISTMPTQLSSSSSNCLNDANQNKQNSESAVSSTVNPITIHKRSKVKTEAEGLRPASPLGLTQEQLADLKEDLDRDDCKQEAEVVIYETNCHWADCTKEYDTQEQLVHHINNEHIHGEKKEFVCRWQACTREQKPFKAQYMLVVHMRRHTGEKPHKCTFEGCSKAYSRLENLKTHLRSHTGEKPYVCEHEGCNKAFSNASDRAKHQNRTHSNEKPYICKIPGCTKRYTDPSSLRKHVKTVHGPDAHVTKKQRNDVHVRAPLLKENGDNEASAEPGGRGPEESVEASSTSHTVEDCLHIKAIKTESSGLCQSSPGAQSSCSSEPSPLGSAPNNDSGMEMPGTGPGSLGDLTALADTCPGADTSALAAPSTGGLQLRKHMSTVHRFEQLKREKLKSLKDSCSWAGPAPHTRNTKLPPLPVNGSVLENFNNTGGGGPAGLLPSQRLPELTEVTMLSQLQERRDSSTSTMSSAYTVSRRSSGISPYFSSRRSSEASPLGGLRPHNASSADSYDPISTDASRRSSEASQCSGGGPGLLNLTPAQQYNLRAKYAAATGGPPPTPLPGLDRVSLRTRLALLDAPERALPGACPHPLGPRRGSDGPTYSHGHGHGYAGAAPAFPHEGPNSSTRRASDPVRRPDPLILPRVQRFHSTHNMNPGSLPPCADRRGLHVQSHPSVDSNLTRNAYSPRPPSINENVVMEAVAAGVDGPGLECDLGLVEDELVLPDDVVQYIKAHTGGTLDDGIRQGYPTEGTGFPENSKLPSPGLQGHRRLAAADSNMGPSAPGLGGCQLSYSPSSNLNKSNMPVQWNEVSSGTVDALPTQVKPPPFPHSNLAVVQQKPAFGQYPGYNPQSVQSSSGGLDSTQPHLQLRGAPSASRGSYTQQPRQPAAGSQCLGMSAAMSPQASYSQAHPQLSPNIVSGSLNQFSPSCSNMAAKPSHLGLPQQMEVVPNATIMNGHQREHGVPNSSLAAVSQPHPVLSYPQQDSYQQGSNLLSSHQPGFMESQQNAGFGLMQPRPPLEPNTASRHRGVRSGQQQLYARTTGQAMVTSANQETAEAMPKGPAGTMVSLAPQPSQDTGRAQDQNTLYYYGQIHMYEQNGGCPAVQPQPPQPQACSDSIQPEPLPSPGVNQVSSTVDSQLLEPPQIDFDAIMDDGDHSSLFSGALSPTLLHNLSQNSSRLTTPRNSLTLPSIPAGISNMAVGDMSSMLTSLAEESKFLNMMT

Structure (SMILES)	Inhibition of Hh pathway activity induced by Gli2 overexpression ([1]; listed as HPI-1)	pIC50 [2]	IC50 [2, 4] [µM]	IC50 [2, 5] [µM]	BODIPY-cyclopamine competition [3]	IC50 [1] [µM]	Toxicity noted in Gli2 Transfected column [1]	Inhibition of Hh pathway activity induced by Gli2 overexpression ([1]; listed as HPI-3)	IC50 ([2]; Shh Light2, read-out: IC50 (uM) SAG/Shh-LIGHT2 cells) [µM]	IC50 ([2]; Shh Light2, read-out: IC50 (uM) Shh/Shh-LIGHT2 cells) [µM]	Inhibition of Hh pathway activity induced by Gli2 overexpression ([1]; listed as HPI-2)	Inhibition of Hh pathway activity induced by Gli2 overexpression ([1]; listed as HPI-4)
COCCOC(=O)C1=C(C)NC2=C(C(=O)CC(c3ccccc3OC)C2)C1c1cccc(O)c1 (mixture of isomers) [Compound 8, 4-(3-Hydroxy-phenyl)-7-(2-methoxy-phenyl)-2-methyl-5-oxo-1,4,5,6,7,8-hexahydro-quinoline-3-carboxylic acid 2-methoxy-ethyl ester]	inhibit Gli-induced firefly luciferase expression in a dose-dependent manner; also recorded: inhibits	> 5.00	1.5	1.3	No	–	–	–	–	–	–	–
N#Cc1cc2c(nc1SCC(=O)Nc1nc3ccccc3s1)CCC2 [Compound 1]	–	–	0.21	0.25	No	3	–	–	–	–	–	–
CCCCNC(=N)C(C)c1ccc(CC(C)C)cc1 (centres unmarked) [Compound 2]	–	–	2.2	1.6	No	> 30	–	–	–	–	–	–
Cc1cc(/C=c2\sc3nc4ccccc4n3c2=O)c(C)n1C(C)C [Compound 3]	–	–	0.55	0.5	No	2	–	–	–	–	–	–
O=C(Nc1cccc2ccccc12)OC[C@@H]1CCCN2CCCC[C@H]12 [Compound 4]	–	–	4	1.8	No	> 30	–	–	–	–	–	–
CCC(C)NS(=O)(=O)c1ccc(Cc2ccc(S(=O)(=O)NC(C)CC)cc2)cc1 (centres unmarked) [Compound 5]	–	–	0.8	1	No	10	–	–	–	–	–	–
CCOC(=O)c1cc2c(=O)n3ccccc3nc2n(C(C)C)c1=NC(=O)c1cc(OC)cc(OC)c1 [Compound 6]	–	–	1	1	No	1.5	–	–	–	–	–	–
CCN1CCCC1CNC(=O)C1CCN(c2nc3c(C)cc(C)cc3s2)CC1 (centres unmarked) [Compound 7]	–	–	1	1.6	No	> 10	(Toxic at 30)	–	–	–	–	–
CCOC(=O)c1cn(-c2ccccc2)nc1-c1ccc(OC)c(OC)c1 [Compound 9]	–	–	5	5	No	> 30	–	–	–	–	–	–
O=S(=O)(Nc1cc(Cl)c(Cl)cc1Cl)c1ccc(F)cc1 [Compound 10]	–	–	2.2	2.2	No	4	–	–	–	–	–	–
OCCNc1nc(N2CCN(c3ccccc3)CC2)nc2ccccc12 [Compound 11]	–	> 5.00	1.5	2	No	> 30	–	no significant activity; also recorded: inactive	–	–	–	–
CC(C)(C)N(CCNS(=O)(=O)c1ccc(-c2cc(C(F)(F)F)no2)s1)Cc1ccco1 [Compound 12]	–	–	2	2	No	15	–	–	–	–	–	–
CN1CCN(C2Cc3ccccc3Sc3ccccc32)CC1 (centres unmarked) [Compound 13]	–	–	1.6	1.4	No	> 30	–	–	–	–	–	–
CCOc1ccc2ncc(C(=O)c3ccc(C)cc3)c(N3CCCC3)c2c1 [Compound 14]	–	–	–	–	No	10	–	–	5.5	5.5	–	–
O=C(Nc1nnc(S(=O)(=O)N2CCCCC2)s1)c1cccc(Br)c1 [Compound 15]	–	–	5	4.5	No	25	–	–	–	–	–	–
CCOc1ccc(CCNc2cnnc3c(Cl)cccc23)cc1OCC [Compound 16]	–	–	8	4.5	No	> 30	–	–	–	–	–	–
COc1ccc(OC)c2c1cc1n2CC(C)(C(=O)NC2CCCCCCC2)N(CCN(C)C)C1=O (centres unmarked) [Compound 17]	–	> 5.00	2	2	No	6	–	–	–	–	preferentially inhibits Gli2	–
N#CC(C(=O)c1ccc(Cl)cc1Cl)=C1NC(=O)c2ccccc2N1 [Compound 18]	–	> 5.00	8	7.5	No	> 10	–	–	–	–	–	no significant activity; also recorded: inactive
